PMC4286001 (Journal of Clinical Pharmacy and Therapeutics, 2013)
Where two headings read alike, the source gives them in different places.

Tests used:
[1] = cited from earlier work
[2] = assay type: in vivo, human; details: for V/F, geometric mean (%CV): single oral 45 mg tablet
[3] = Safety and tolerability of single-dose ponatinib 45 mg in healthy subjects; assay type: in vivo, human

Row | SMILES | Effect of food intake on PK [1] | Time at which maximum mean concentrations were reached ([2]; across high-fat, low-fat and fasted regimens, single 45-mg tablet) | Quantifiability of ponatinib in plasma ([2]; all three treatment regimens, lower limit 0·5 ng/mL) | V/F, geometric mean (%CV) ([2]; fasted) | V/F, geometric mean (%CV) ([2]; high-fat meal) | V/F, geometric mean (%CV) ([2]; low-fat meal) | Time post-dose at which maximum plasma concentration was observed ([2]; overall, fasting, high-fat and low-fat) | Subjects with AEs at least possibly related to treatment, n (%) ([3]; 24 subjects, all regimens) | Severe AEs ([3]; all regimens) | Treatment-related increased lipase levels ([3]; all regimens) | Vital signs, ECG parameters or physical examinations ([3]; all regimens) | High triacylglycerol lipase levels ([3]; clinically significant abnormality) | Tolerability ([3]; healthy subjects, regardless of food intake regimen) | Clinically significant abnormalities (laboratory), number ([3]; in a total of five subjects)
1 | Cc1nc(Nc2ncc(C(=O)Nc3c(C)cccc3Cl)s2)cc(N2CCN(CCO)CC2)n1 [dasatinib] | unaffected by food intake |  |  |  |  |  |  |  |  |  |  |  |  | 
2 | Cc1ccc(C(=O)Nc2ccc(CN3CCN(C)CC3)c(C(F)(F)F)c2)cc1C#Cc1cnc2cccnn12 [ponatinib, 3-[2-(imidazo[1,2-b]pyridazin-3-yl)ethynyl]-4-methyl-N-{4-[(4-methylpiperazin-1-yl)methyl]-3-(trifluoromethyl)phenyl}benzamide] |  | 5 to 6 h | quantifiable through the 96-h sampling interval | 1242 (30·0) L | 1104 (28·8) L | 1278 (37·6) L | ~6 h | 10 (41·7%) subjects | no severe AEs | three | No clinically significant abnormalities | three | generally well tolerated | five
